These results are taken from patent US20060111385A1, “Novel 4-phenyl substituted tetrahydroisoquinolines and therapeutic use thereof” (priority 2004, published 2006).

Counter-ions that a name gives are not always drawn.

Tested on in one data set: not given
Details: not given
Regarding `CN1Cc2c(ccc3ccoc23)C(c2ccc(F)cc2)C1` (stereo not shown) (as salt: hydrochloride), the melting point (usually the temperature, or range, at which the solid turns liquid) lay in the range of 242 to 257 °C.

`CN1Cc2c(ccc3ccoc23)C(c2cc(F)cc(F)c2)C1` (stereo not shown) (as salt: hydrochloride) showed a melting point of 233 to 236 °C.

`CN1Cc2c(ccc3ccoc23)C(c2ccccc2)C1` (single isomer, unassigned) yielded a melting point of 81 to 83 °C.

In the case of `Cc1ccc(C2CN(C)Cc3c2ccc2ccoc32)cc1` (single isomer, unassigned) (as salt: hydrochloride), the melting point lay in the range of 240 to 246 °C.

With `CN1Cc2c(ccc3ccoc23)C(c2ccccc2)C1` (single isomer, unassigned) (as salt: maleate), the melting point was 165 to 168 °C.

Consider `Cc1ccc(C2CN(C)Cc3c2ccc2ccoc32)cc1` (single isomer, unassigned) (as salt: maleate), for which the melting point was in the range of 190 to 191 °C.

In another data set the test system is dopamine transporter protein over the norepinephrine transporter protein. Conditions: selectivity for dopamine transporter protein over norepinephrine transporter protein; cited from earlier work.
For the compound `COC(=O)C(c1ccccc1)C1CCCCN1` (stereo not shown) [Methylphenidate, methylphenidate], the “DAT/NET Ki ratio” value is 0.1.
